Measured values published in patent US9566351B2, “Molecular containers and methods of making and using same” (University of Maryland, College Park, priority 2010, dated 2017).
Like-named read-outs stand apart in the source and are kept apart here.

Tests used:
[1] = drug with Motor1; 20 mM sodium phosphate buffer (pH=7.4); phase diagram
[2] = Swiss Webster, mouse, in vivo
[3] = tested on: SKHEP-1 (human liver adenocarcinoma) xenografts; conditions: ABZ in sesame oil; xenografts on the flank of mice; cited from earlier work
SK-OV-3 cells = conditions: ABZ formulated in ethanol; cited from earlier work
glioblastoma multiforme = conditions: daily oral doses (50 and 150 mg/kg) of ABZ tablets mixed with 50% sesame oil; cited from earlier work
[4] = Swiss Webster, mouse, in vivo, iv, 3.2 mg/kg
[5] = mice; repeated oral dosing of 30-40 mg/kg/day for 4-90 days; cited from earlier work
in vivo [6] = conditions: Swiss Webster, mouse, iv, plasma concentration
[7] = Phase-solubility of pharmaceutical agents with Motor2 (1H NMR); conditions: drug solubilized with Motor2; 20 mM sodium phosphate buffer (pH=7.4); phase diagram
in vivo [8] = conditions: Swiss Webster, mouse, ip, plasma concentration
[9] = tested on: OVCAR-3 (human ovarian adenocarcinoma); conditions: 150 mg/kg of ABZ 3 times a week for 4 weeks through IP; cited from earlier work

For `CCCSc1ccc2nc(NC(=O)OC)[nH]c2c1` [Albendazole], the Solubility enhancement [1] was 226 fold, the “Absolute Bioavailability (%)” value [2] was 78% and the “tmax” value ([2]; ip, 3.2 mg/kg) was 4.98 min. For the same compound, the “daily oral dose required to see an antitumor effect” value [3] was 300 mg/kg, the IC50 (SK-OV-3 cells) was 3.88 µM and the mouse survival (glioblastoma multiforme) was “moderate improvements in mouse survival”. The “tmax” value [4] was 4.98 min, the signs of toxicity [5] was “no significant signs of toxicity” and the concentration at 5 min (in vivo [6]) was 1910 ng/mL. For the same compound, the concentration at 15 min (in vivo [6]) was 606 ng/mL, the Solubility enhancement [7] was 149 fold and the concentration at 15 min (in vivo [8]) was 380 ng/mL. The concentration at 30 min (in vivo [8]) was 292 ng/mL, the concentration at 2 h (in vivo [8]) was 122 ng/mL and the “effect on malignant ascites” value [9] was “suppression of malignant ascites”.
